Assay: Metabolic stability of parent peptide in rat hepatocytes
Settings: male, Sprague-Dawley

SMILES	half-life at 10 µM [min]
CSCC[C@H](NC(=O)[C@H](CC(C)C)NC(=O)[C@H](Cc1c[nH]cn1)NC(=O)CNC(=O)[C@@H](NC(=O)[C@H](C)NC(=O)[C@H](Cc1c[nH]c2ccccc12)NC(=O)[C@H](CCC(N)=O)NC(=O)CCCCCNC(=O)C(C)F)C(C)C)C(N)=O (some centres unmarked) [FP-BBN, FP-aca-QWAVGHLM-NH2]	~25
CSCC[C@H](NC(=O)[C@H](CC(C)C)NC(=O)[C@H](Cc1c[nH]cn1)NC(=O)CNC(=O)[C@@H](NC(=O)[C@H](C)NC(=O)[C@H](Cc1c[nH]c2ccccc12)NC(=O)[C@H](CCC(N)=O)NC(=O)CCCCCNC(=O)c1ccc(F)cc1)C(C)C)C(N)=O [FB-BBN, FB-aca-QWAVGHLM-NH2]	~3.8

Reference: paper PMC3387330 (Amino acids, 2012)
